Assay results as given in PMC6435658, “Investigation into the Molecular Mechanisms underlying the Anti-proliferative and Anti-tumorigenesis activities of Diosmetin against HCT-116 Human Colorectal Cancer” (Scientific Reports, 2019).
≈ marks a conversion by molar mass, not a printed value.

Tests used:
[1] = system: HCT-116 cells; assay: MTT cytotoxicity assay, HCT-116; format: cell-based, human; conditions: for IC50: Homo sapiens, MTT
Procedure: (§1) Cytotoxicity property of Dis against HCT-116 and CCD-841 cells were measured by MTT assay as described by Mossman[77]. Briefly, cells were treated with different concentration of Dis and 5-Fu (positive control) with serial dilution factor of 2 for 8 concentrations in 96 well-plate for different time points (24 h, 48 h and 72 h). Subsequently at the end of each time point 20 µl of MTT (5 mg/ml, Affymetrix,Cleveland, OH, USA) were added to each well followed by 4 h incubation. The solutions were aspirated after 4 h and 100 µl of DMSO were added to each well. Absorbance for each well was read at 570 nm as measured by using microplate reader (Tecan Infinite multimode, Männedorf, Switzerland). Cytotoxicity (cell death) was measured by using the following formula: Celldeath(%)=sampleOD−controlOD/controlOD100
(§2) This assay was performed in triplicates in three independent experiments. The cytotoxicity property of Dis was presented as IC50 value.

[2] = system: HT-29 cells; assay: MTT cytotoxicity assay, HT-29; format: cell-based, human; conditions: for IC50: Homo sapiens, MTT
Procedure: [Worded in the source for another cell line; this cell line is reported under the same test.] as §1, §2

[3] = system: CCD-841 cells; assay: MTT cytotoxicity assay, CCD-841 normal colon cells; format: cell-based; conditions: Homo sapiens, CCD-841 non cancerous cells
Procedure: as §1, §2

[4] = system: HCT-116 cells; assay: Annexin-V-FITC apoptosis assay; format: cell-based, human
Procedure: Inductions of early and late stages of apoptosis by Dis were investigated using Annexin-V-FITC assay according to the manufacturer’s instructions (BD Biosciences, San Jose, CA, USA). Briefly, 10^6 HCT-116 cells were seeded in 25 cm^2 flask followed by treatment with Dis for 24 h, 48 h and 72 h. Treated cells were harvested and washed twice with cold PBS and suspended in binding buffer followed by transferred of 10^5 cells to the 6 ml polystyrene round-bottom FACS tubes. Cells were incubated with 5 µl of PI and 5 µl of Annexin-V-FITC and introduced to the FACSCanto™II instrument (BD, San Jose, CA, USA).

[5] = system: caspase 3/7; assay: Caspase-Glo 3/7 bioluminescent assay; format: cell-based, human; conditions: HCT-116, 24 h, 48 h, 72 h, time dependent
Procedure: (§3) To assess the effect of Dis on caspase cascades in treated cells, activities of caspase-Glo 3/7, caspase-Glo 8 and caspase-Glo 9 assays (Promega, Madison, WI, USA) were performed. Briefly, HCT-116 cells with the density of 10^4 cells/well were seeded in 96 well-plates. Cells were treated with Dis for 24 h, 48 h and 72 h. This assay was performed in triplicates for each time point. A total of 6 wells were preserved for samples without cells but with media and reagents as the blank samples, and for the untreated cells as negative control. At the end of incubation time, 100 µl caspase-glo mixture were added to each well and incubated for 1 h in the dark according to the manufacturer’s instructions. Optical density was measured via multimode microplate reader (Tecan Infinite, Männedorf, Switzerland).

[6] = system: caspase 8; assay: Caspase-Glo 8 bioluminescent assay; format: cell-based, human; conditions: HCT-116, 24 h, 48 h, 72 h, time dependent
Procedure: as §3

[7] = system: caspase 9; assay: Caspase-Glo 9 bioluminescent assay; format: cell-based, human; conditions: HCT-116, 24 h, 48 h, 72 h, time dependent
Procedure: as §3

[8] = system: NF-κB; assay: Translocation of NF-κB induced by TNF-α; format: cell-based, human; conditions: HCT-116 stimulated with TNF-α, vs untreated group
Procedure: Confocal microscope was used to detect the suppressive effect of Dis on translocation of NF-κB from cytoplasm to nucleus induced by TNF-α (Santa Cruz, CA, USA) using cellomics nucleus factor-κB (NF-κB) activation kit (Thermo Scientific™, Pittsburgh, PA, USA). HCT-116 cells were seeded and treated with Dis at different time points in 24 well-plate covered with cover slide. An amount of 150 ng/ml of TNF-α was used as a stimulator for 24 h. Cells were then fixed and stained according to the manufacturer’s instructions. Translocation of NF-κB was investigated via confocal Leica TCS SP5 II microscope (Leica Microsystems, Mannheim, Germany) and intensity of NF-κB was measured by using LAS X software.

[9] = system: HCT-116 cells; assay: Cell cycle analysis by flow cytometry; format: cell-based, human; conditions: HCT-116, 24 h, 48 h, 72 h
Procedure: Flow cytometry analysis was performed to determine any disruption during the cell cycle of HCT-116 cells in the presence of Dis. HCT-116at density of 2 × 10^6 cells were seeded and treated for 24 h, 48 h and 72 h in a 75 cm^2 flask. Negative control was treated with 0.02% DMSO. After fixation of the cells with 70% ethanol, cells were preserved in −20 °C overnight followed by washing and staining with 500 µl of PI/Rnase dye (BD Biosciences, San Jose, CA, USA) and incubated for 30 min. DNA content analysis was performed using BD FACSCanto II flow cytometer instrument and BD FACS Diva software (BD FACSCanto™II, San Jose, CA, USA). A total of 15,000 events per sample were recorded for analysis. ModFit LT version 3.0 software was used for analyzing the data.

[10] = system: HCC; design: method as in PMID 19424633, PMID 27176768, PMID 26847170, PMID 20183323; conditions: 24 h treatment, ref [10],[13],[15],[47]; cited from earlier work
[11] = system: MCF-10; design: method as in PMID 19424633, PMID 27176768, PMID 26847170, PMID 20183323; conditions: MCF-10 non-cancerous cells, 24 h; ref [10],[13],[15],[47]; cited from earlier work
[12] = system: SK-Hep-1; design: method as in PMID 19424633, PMID 27176768, PMID 26847170, PMID 20183323; conditions: SK-Hep-1, 24 h; ref [10],[13],[15],[47]; cited from earlier work
[13] = system: MDA-MB 468; design: method as in PMID 19424633, PMID 27176768, PMID 26847170, PMID 20183323; conditions: MDA-MB 468, 24 h treatment; ref [10],[13],[15],[47]; cited from earlier work

With COc1ccc(-c2cc(=O)c3c(O)cc(O)cc3o2)cc1O [Dis, Diosmetin] the IC50 ([1]; HCT-116, 24 h) was 5.56 ± 0.48 µg/mL (≈ 18.5 µM), the IC50 ([1]; HCT-116, 48 h) was 3.58 ± 0.58 µg/mL (≈ 11.9 µM) and the IC50 ([1]; HCT-116, 72 h) was 3.41 ± 0.64 µg/mL (≈ 11.4 µM). For the same compound, the “Selectivity Index (SI)” value ([1]; IC50 CCD-841 / IC50 HCT-116, 24 h) was 42.53, the “Selectivity Index (SI)” value ([1]; IC50 CCD-841 / IC50 HCT-116, 48 h) was 14.51 and the “Selectivity Index (SI)” value ([1]; IC50 CCD-841 / IC50 HCT-116, 72 h) was 11.88. The IC50 ([2]; HT-29, 24 h) was 44.5 ± 1.75 µg/mL (≈ 148 µM), the IC50 ([2]; HT-29, 48 h) was 17.6 ± 0.61 µg/mL (≈ 58.4 µM) and the IC50 ([2]; HT-29, 72 h) was 11.46 ± 0.1 µg/mL (≈ 38.2 µM). For the same compound, the “Selectivity Index (SI)” value ([2]; IC50 CCD-841 / IC50 HT-29, 24 h) was 5.31, the “Selectivity Index (SI)” value ([2]; IC50 CCD-841 / IC50 HT-29, 48 h) was 2.96 and the “Selectivity Index (SI)” value ([2]; IC50 CCD-841 / IC50 HT-29, 72 h) was 3.53. The IC50 ([3]; 24 h) was 236 ± 9.99 µg/mL (≈ 788 µM), the IC50 ([3]; 48 h) was 51.95 ± 0.11 µg/mL (≈ 173 µM) and the IC50 ([3]; 72 h) was 40.5 ± 9.99 µg/mL (≈ 135 µM). The Late apoptosis ([4]; HCT-116, 24 h) was 18 ± 3.6%, the Late apoptosis ([4]; HCT-116, 48 h) was 26.3 ± 3.6% and the Late apoptosis ([4]; HCT-116, 72 h) was 53.15 ± 4.35%. For the same compound, the “population of cells in early apoptosis” value ([4]; HCT-116, 72 h of treatment) was 7.7 ± 0%, the “cleavage of caspase 3/7” value [5] was “significantly increased” and the “cleavage of caspase 8” value [6] was “significantly increased”. The “cleavage of caspase 9” value [7] was “significantly increased”, the “translocation of NF-ƙB” value [8] was “significantly reduced” and the cell cycle arrest [9] was “arrested in G2/M phase”. The IC50 [10] was 50 µg/mL (≈ 167 µM), the IC50 [11] was 30 µg/mL (≈ 99.9 µM) and the IC50 [12] was 100 µg/mL (≈ 333 µM). For the same compound, the IC50 [13] was 1.35 µg/mL (≈ 4.5 µM).
